Experimental data published in paper PMC10343752, “Anti-α-Glucosidase, SAR Analysis, and Mechanism Investigation of Indolo[1,2-b]isoquinoline Derivatives” (Molecules, 2023).

How the values were obtained:
[1] = biological target: T1, α-glucosidase (Saccharomyces cerevisiae, UniProt P53341); experiment: CD spectra, secondary structure contents of α-glucosidase; type: binding; details: for effect on CD band intensity of α-glucosidase: 190~280 nm
T1 construct: purchased Sigma-Aldrich
Text: CD spectra were also monitored to study the effect of compounds 9, 11, 13, 18, and 19 on the conformational changes of α-glucosidase. As shown in Figure 7a–e, α-glucosidase presented two negative CD bands in the region of 190~280 nm, which was owed to the electronic transitions of n→π* of α-helical bonds. […] While treatment of compounds 9, 13, 18, and 19 led to an increase of α-helix and a reduction of β-sheet, β-turn, and random coils, respectively (Table 3). CD spectra have been an important method by which to study protein structural changes and secondary structural content. Previous research has shown that the interaction of an inhibitor with α-glucosidase caused the partial folding and loosening of the α-glucosidase structure.
(§1) α-Glucosidase from Saccharomyces cerevisiae (EC 3.2.1.20) was purchased from Sigma-Aldrich. p-Nitrophenyl-α-D-[…] (PNPG) was obtained from Abcam. Other reagents were commercially available.
Compounds 9, 11, 13, 18, and 19 with different concentrations were added into α-glucosidase solution (31 μM) and incubated for 5 min, respectively, then the CD spectra of the mixture were recorded. CDNN was used to analyze the ratio of protein secondary conformations.

[2] = biological target: T1, α-glucosidase; experiment: 3D fluorescence spectra of α-glucosidase with compounds; type: binding; details: α-glucosidase 5 μM
Text: The 3D fluorescence spectra of α-glucosidase with compounds 9, 11, 13, 18, and 19 was investigated to analyze the effect of compounds on the structure of α-glucosidase, respectively. Two important characteristic peaks appeared in the 3D fluorescence spectra of α-glucosidase (Figure 6a,c,e,g,i), including Peak 1 ([…]), corresponding to the main chain structure of the polypeptide, and Peak 2 ([…]), corresponding to tyrosine and tryptophan residues. […] (Figure 6b,d,f,h,j). Previously, 3D fluorescence spectra have been used to determine protein conformation changes.
as §1
Compounds 9, 11, 13, 18, and 19 were added to α-glucosidase (5 μM) in 100 μL of PBS and incubated for 5 min, then the 3D fluorescence spectra of the mixture were recorded [32]^. The excitation and emission wavelengths were 200–500 nm and the slit width was 2.5 nm. All data were imported into Matlab for processing.

[3] = biological target: T2, α-glucosidase from Saccharomyces cerevisiae (Saccharomyces cerevisiae, UniProt P53341); experiment: biochemical; type: biochemical; details: for IC50: α-glucosidase 0.1 U/mL, PNPG 0.25 mM, pH 6.8, 37 °C, read-out: α-Glucosidase inhibitory activity IC50
T2 construct: purchased Sigma-Aldrich
Protocol: as §1
After the addition of PNPG (0.25 mM), the change in absorbance was measured at 405 nm. […] All experiments were performed four times.

[4] = biological target: T1, α-glucosidase; experiment: α-glucosidase inhibition kinetics (enzyme kinetics and Lineweaver-Burk substrate kinetics); type: biochemical; details: for inhibition type (substrate kinetics): Lineweaver-Burk plots; for Ki / Kis / Vmax: inhibition kinetics constant; for reversibility of inhibition (enzyme kinetics): plots of remaining enzyme activity versus enzyme concentration
Text: Compounds 9, 11, 13, 18, and 19 with different α-glucosidase inhibitory activity were selected as representative compounds to reveal the inhibition mechanism of indolo[1,2-b]isoquinoline derivatives (1–21) on α-glucosidase by the implementation of an inhibition kinetics study. […] For substrate kinetics (Figure 5b,d,f,h,j), the Lineweaver-Burk plots of remaining enzyme activity versus […] treated with compounds 9, 11, 13, 18, and 19 intersected at one point in the second quadrant, respectively. The inhibition kinetics study was an effective method by which to understand the inhibition mechanism of the inhibitor against the target protein. In a substrate kinetics study, different inhibition mechanisms of inhibitors manifested as different intersection positions of Lineweaver-Burk plots. […] Moreover, compounds 9, 11, 13, 18, and 19 bind with both free enzyme and enzyme-substrate complexes to inhibit α-glucosidase. The inhibition kinetics constants of compounds 9, 11, 13, 18, and 19 were obtained and are listed in Table 2, including Ki, Kis, Km, and Vmax values, which might be helpful to understand the inhibition mechanism.
as §1
The kinetics of enzyme inhibition for compounds 9, 11, 13, 18, and 19 were obtained by plotting the enzymatic reaction rate versus enzyme concentration with or without compounds 9, 11, 13, 18, and 19, and the kinetics of substrate inhibition were measured using Lineweaver Burk plots of the enzymatic reaction rate versus substrate concentration with or without compounds 9, 11, 13, 18, and 19 [37, 38, 39, 40].

[5] = tested on: hepatocytes LO2 cells; experiment: In vitro cytotoxicity, MTT method; type: cell-based; details: 24 h, up to a concentration of 32 μM
Protocol: The in vitro cytotoxicity of compounds 9, 11, 13, 18, and 19 against hepatocytes LO2 cells was detected using the MTT method.
The in vitro cytotoxicity of compound 11 against hepatocytes LO2 cells was assayed using the MTT method. LO2 cells were cultured in DMEM containing 10% FBS, 100 IU/mL penicillin, and 100 IU/mL streptomycin at 37 °C under 5% CO2. An amount of 100 μL of LO2 cells was seeded into a 96-well plate (5000 per well) for 24 h, and was then treated with compounds 9, 11, 13, 18, and 19 for 24 h, respectively. Then, MTT solution was added into each well and incubated for 4 h. An amount of […] of DMSO was used to dissolve the obtained crystallization. Then, this absorbance was determined at 490 nm. Each sample was performed in triplicate.

[6] = molar ratio [α-Glu]:[Comp.] 1:1
[7] = molar ratio [α-Glu]:[Comp.] 1:2
[8] = molar ratio [α-Glu]:[Comp.] 1:3

T2 sequence (P53341 whole entry): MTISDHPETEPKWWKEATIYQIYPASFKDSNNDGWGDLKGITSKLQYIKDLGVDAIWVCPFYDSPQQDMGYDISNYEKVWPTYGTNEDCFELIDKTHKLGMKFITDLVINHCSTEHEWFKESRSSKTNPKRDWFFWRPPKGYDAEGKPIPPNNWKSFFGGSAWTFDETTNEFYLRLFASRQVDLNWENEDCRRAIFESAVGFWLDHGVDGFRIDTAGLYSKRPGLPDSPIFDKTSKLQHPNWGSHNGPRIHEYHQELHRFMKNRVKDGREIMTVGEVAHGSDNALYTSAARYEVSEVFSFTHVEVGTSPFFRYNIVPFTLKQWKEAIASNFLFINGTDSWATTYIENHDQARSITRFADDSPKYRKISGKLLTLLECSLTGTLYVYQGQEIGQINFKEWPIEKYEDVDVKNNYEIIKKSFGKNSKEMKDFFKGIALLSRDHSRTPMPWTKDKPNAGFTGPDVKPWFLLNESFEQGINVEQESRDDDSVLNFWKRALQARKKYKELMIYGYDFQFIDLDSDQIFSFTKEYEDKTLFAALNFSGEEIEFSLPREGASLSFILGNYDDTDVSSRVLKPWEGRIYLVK
T1 sequence (P53341 whole entry): as above

Row | IC50 [3] | Compound | effect on CD band intensity of α-glucosidase [1] | Rndm Coil [1, 6] | α-Helix [1, 6] | β-Sheet [1, 6] | β-Turn [1, 6] | Rndm Coil [1, 7] | α-Helix [1, 7] | β-Sheet [1, 7] | β-Turn [1, 7] | Rndm Coil [1, 8] | α-Helix [1, 8] | β-Sheet [1, 8] | β-Turn [1, 8] | effect on fluorescence intensity of Peak 1 and Peak 2 of α-glucosidase [2] | inhibition type (substrate kinetics) [4] | Ki [4] | Kis [4] | Vmax [4] | reversibility of inhibition (enzyme kinetics) [4] | further results
1 | 17 ± 0.37 µM | Cc1ccc2c(c1)-n1c(c(-c3ccccc3)c3ccccc3c1=O)C2=O [Compound 14] | – | – | – | – | – | – | – | – | – | – | – | – | – | – | – | – | – | – | – | –
2 | 10.1 ± 0.36 µM | O=C1c2cc(F)ccc2-n2c1c(-c1ccccc1)c1ccccc1c2=O [Compound 16] | – | – | – | – | – | – | – | – | – | – | – | – | – | – | – | – | – | – | – | –
3 | 7.95 ± 0.43 µM | Cc1ccc2c(=O)n3c(c(-c4ccccc4)c2c1)C(=O)c1ccccc1-3 [Compound 17] | – | – | – | – | – | – | – | – | – | – | – | – | – | – | – | – | – | – | – | –
4 | 11.9 ± 0.36 µM | Cc1ccc2c(=O)n3c(c(-c4ccccc4)c2c1)C(=O)c1cc(F)ccc1-3 [Compound 20] | – | – | – | – | – | – | – | – | – | – | – | – | – | – | – | – | – | – | – | –

More lines, now with the values behind:

Row | Compound | IC50 [3] | effect on CD band intensity of α-glucosidase [1] | Rndm Coil [1, 6] | α-Helix [1, 6] | β-Sheet [1, 6] | β-Turn [1, 6] | Rndm Coil [1, 7] | α-Helix [1, 7] | β-Sheet [1, 7] | β-Turn [1, 7] | Rndm Coil [1, 8] | α-Helix [1, 8] | β-Sheet [1, 8] | β-Turn [1, 8] | effect on fluorescence intensity of Peak 1 and Peak 2 of α-glucosidase [2] | inhibition type (substrate kinetics) [4] | Ki [4] | Kis [4] | Vmax [4] | reversibility of inhibition (enzyme kinetics) [4] | further results
5 | O=C1c2ccccc2-n2c1c(-c1ccc3ccccc3c1)c1ccccc1c2=O [Compound 11] | 3.44 ± 0.36 µM | concentration-dependent increase in the CD band intensity | 35.60% | 8.40% | 34.30% | 20.00% | 35.60% | 8.20% | 34.70% | 20.00% | 35.80% | 7.80% | 35.20% | 20.10% | decrease the fluorescence intensity | mixed-type inhibition | 0.46 µM | 14.57 µM | 0.06 µM/min/mg | reversible | anti-α-glucosidase activity, times stronger than acarbose [3]: ~ 186 times; effect on cell viability [5]: no significant effect on cell viability
6 | COC(=O)c1ccc(-c2c3n(c(=O)c4ccccc24)-c2ccccc2C3=O)cc1 [Compound 12] | 32.8 ± 0.72 µM | – | – | – | – | – | – | – | – | – | – | – | – | – | – | – | – | – | – | – | –
7 | O=C1c2cc(Cl)ccc2-n2c1c(-c1ccccc1)c1ccccc1c2=O [Compound 13] | 6.35 ± 0.25 µM | decrease in CD band intensity | 35.60% | 8.80% | 40.60% | 19.30% | 35.40% | 9.10% | 39.60% | 19.40% | 35.10% | 11.20% | 34.60% | 19.60% | decrease the fluorescence intensity | mixed-type inhibition | 3.62 µM | 11.65 µM | 0.08 µM/min/mg | reversible | effect on cell viability [5]: no significant effect on cell viability
8 | O=C1c2ccc(Cl)cc2-n2c1c(-c1ccccc1)c1ccccc1c2=O [Compound 15] | 9.25 ± 0.41 µM | – | – | – | – | – | – | – | – | – | – | – | – | – | – | – | – | – | – | – | –
9 | O=C1c2ccccc2-n2c1c(-c1ccccc1)c1ccc(F)cc1c2=O [Compound 18] | 7.97 ± 0.31 µM | decrease in CD band intensity | 35.00% | 11.10% | 35.30% | 19.40% | 35.00% | 11.20% | 35.00% | 19.30% | 34.70% | 12.80% | 35.00% | 19.30% | decrease the fluorescence intensity | mixed-type inhibition | 4.62 µM | 12.34 µM | 0.08 µM/min/mg | reversible | effect on cell viability [5]: no significant effect on cell viability
10 | Cc1ccc2c(c1)-n1c(c(-c3ccccc3)c3cc(C)ccc3c1=O)C2=O [Compound 19] | 41.2 ± 0.76 µM | decrease in CD band intensity | 34.60% | 12.90% | 31.80% | 19.40% | 34.70% | 11.50% | 34.20% | 19.30% | 34.90% | 12.80% | 34.40% | 19.30% | decrease the fluorescence intensity | mixed-type inhibition | 8.38 µM | 42.30 µM | 0.05 µM/min/mg | reversible | effect on cell viability [5]: no significant effect on cell viability
